Test results as given in publication PMC5485575, “Arginine kinase from Haemonchus contortus decreased the proliferation and increased the apoptosis of goat PBMCs in vitro” (Parasites & Vectors, 2017).

Biological target: T1, rHc-AK (Haemonchus contortus, UniProt K0DG62)
T1 construct: E. coli BL21(DE3), Ni-NTA
Experiment: fluorimetric ADP formation assay (Universal Fluorimetric Kinase Assay kit)
Type: biochemical
Settings: room temperature, 30 min; 0-10 ug enzyme; substrates of the kinase reaction solution not named

T1 sequence (K0DG62 entry or part of it): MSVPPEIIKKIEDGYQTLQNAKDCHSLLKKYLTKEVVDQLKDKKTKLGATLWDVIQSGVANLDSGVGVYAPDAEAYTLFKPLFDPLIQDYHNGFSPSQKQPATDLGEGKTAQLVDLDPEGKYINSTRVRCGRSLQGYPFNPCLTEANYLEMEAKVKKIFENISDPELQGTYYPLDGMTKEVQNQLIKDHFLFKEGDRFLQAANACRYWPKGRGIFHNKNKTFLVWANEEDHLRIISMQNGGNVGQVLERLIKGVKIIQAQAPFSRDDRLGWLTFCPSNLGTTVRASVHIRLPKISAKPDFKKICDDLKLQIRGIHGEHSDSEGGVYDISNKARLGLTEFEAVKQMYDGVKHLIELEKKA

`Nc1ncnc2c1ncn2[C@@H]1O[C@H](COP(=O)(O)OP(=O)(O)O)[C@@H](O)[C@H]1O` [ADP] was tested, and the “fluorimetric ADP formation assay (Universal Fluorimetric Kinase Assay kit)” value was “results showed a remarkable augmentation in ADP generation with increased period”.
